One molecule from paper PMC8308585, “Design and Synthesis of Novel Thiazolo[5,4-d]pyrimidine Derivatives with High Affinity for Both the Adenosine A1 and A2A Receptors, and Efficacy in Animal Models of Depression” (Pharmaceuticals, 2021) can be followed below.

Read-outs that look alike come from different tables or passages of the source.

One experiment concerns the target T1, human A2A AR (Homo sapiens, UniProt P29274).
T1 construct: expressed in transfected cells; host or cells: CHO cells
The experiment can be described thus: Radioligand binding, displacement of [3H]-NECA at hA2A AR in CHO cells.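 Also: competition binding on membranes from CHO cells stably transfected with human A2A receptor, binding curves fitted by nonlinear regression in GraphPad Prism.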 For orientation: Loss of bound radioactivity is the signal in a displacement assay; it reports binding, not function.

In a further experiment the target is T2, hA3 AR (Homo sapiens, UniProt P0DMS8).
T2 construct: expressed in transfected cells; host or cells: CHO cells
T2 sequence (P0DMS8 1-318): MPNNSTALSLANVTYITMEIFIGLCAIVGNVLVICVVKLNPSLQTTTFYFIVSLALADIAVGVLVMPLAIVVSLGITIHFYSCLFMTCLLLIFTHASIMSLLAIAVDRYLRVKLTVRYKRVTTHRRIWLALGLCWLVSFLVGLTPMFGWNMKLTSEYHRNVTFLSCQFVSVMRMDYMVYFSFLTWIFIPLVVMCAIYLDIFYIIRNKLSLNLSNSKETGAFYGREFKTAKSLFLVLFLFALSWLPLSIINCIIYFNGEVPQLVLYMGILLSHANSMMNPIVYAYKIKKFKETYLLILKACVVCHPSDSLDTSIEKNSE
In words: Radioligand binding, displacement of [3H]-HEMADO at hA3 AR in CHO cells. Particulars: displacement of specific [3H]-HEMADO binding, mean ± SEM.

A further experiment concerns the target T3, hA2B AR (Homo sapiens, UniProt P29275).
T3 construct: expressed in transfected cells; host or cells: CHO cells
T3 sequence (P29275 1-332): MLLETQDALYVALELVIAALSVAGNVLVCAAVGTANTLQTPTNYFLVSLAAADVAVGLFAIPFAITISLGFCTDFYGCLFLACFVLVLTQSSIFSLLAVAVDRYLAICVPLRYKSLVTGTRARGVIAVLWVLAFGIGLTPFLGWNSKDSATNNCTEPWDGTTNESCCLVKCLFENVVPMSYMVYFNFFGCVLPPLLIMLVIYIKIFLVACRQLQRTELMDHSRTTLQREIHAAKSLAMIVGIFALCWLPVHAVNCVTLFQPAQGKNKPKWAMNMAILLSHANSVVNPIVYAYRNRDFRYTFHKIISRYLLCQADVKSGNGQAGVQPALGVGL
The experiment can be described thus: Inhibition of NECA-stimulated adenylyl cyclase activity (cAMP) in CHO cells expressing hA2B AR. The experiment is classed as cell-based. The following applies: mean ± SEM. Here is the method:
Compounds 1–19 were evaluated for their binding affinity at hA1, hA2A, and hA3 ARs, stably transfected in Chinese hamster ovary (CHO) cells. […].
The binding affinity of the novel compounds was evaluated using radioligand competition experiments in CHO cells stably transfected with hA1 AR, hA2A AR, and hA3 AR subtypes. […]; The potency at hA2B AR, expressed on CHO cells, was determined by inhibition of NECA-stimulated adenylyl cyclase activity. […]
Binding data and concentration–response curves were fitted by a nonlinear regression with the Prism program (GraphPAD Prism 7 Software, San Diego, CA, USA). Each concentration was tested 3–5 times in duplicate and the Ki or IC50 (the concentration of antagonists that produces 50% inhibition of the agonist effect) values are given as the mean ± standard error (S.E.).

For experiment [1], the system named is mice. In words: Tail suspension test. Particulars: mouse TST, single dose, mean ± SEM of 10 mice, vehicle 99.0 ± 6.8. The format is in vivo. Here is the method: To execute the tests, mice were divided into groups, each of which consisted of 10 animals. The tests were performed after a single p.o. administration of compound 18 at different dosages (10 mg Kg^−1 and 30 mg Kg^−1). Amitriptyline (15 mg Kg^−1) was used as the reference drug. Compounds were acutely administrated 26 min before the beginning of the experiment. In the FST (Table 4), the duration of immobility was recorded during the last 4 min of the 6 min test.
A decrease in the duration of immobility is indicative of an antidepressant-like effect. […] Accordingly, a similar activity was shown in the tail suspension test (Table 5) where the immobility time was measured in the first 2 min, when animals react to the inescapable stress, and in the last 4 min of the test, when the behavioral despair is established. Immobility was defined as the absence of any limb or body movements, except those caused by respiration. A reduction in the duration of the immobility time is indicative of an antidepressant-like effect.
Male CD-1 albino mice (22–25 g; Envigo, Varese, Italy) were housed in CeSAL (Centro Stabulazione Animali da Laboratorio, University of Florence, Florence, Italy) and used at least one week after their arrival. Animals were housed in 26 cm × 41 cm cages (12 mice each) and fed with a standard laboratory diet and tap water ad libitum. They were kept at 23 ± 1 °C with a 12 h light/dark cycle, light at 7 a.m. […]
A piece of tape was adhered to the upper middle of the tail of each animal, creating a flap with the overlap of tape. […] The duration of the test was 6 min and the immobility time was measured in the first 2 min, when animals react to the inescapable stress, and in the last 4 min of the test, when the behavioral despair is established. […]
Behavioral tests were performed by visual observation by researchers blinded to the treatments. Results were expressed as means ± SEM, variance was analyzed by ANOVA. […] Data were analyzed using the “Origin 8.1” software.

Experiment [2] concerns mice. In words: Sucrose preference test, LPS-induced anhedonia. The format is in vivo, mouse. The following applies: for Sucrose Preference (%), 6 h / Sucrose Preference (%), 24 h: LPS 1.25 mg kg^−1 i.p. mice; for Sucrose Preference (%), 6 h: 6 h after LPS, vehicle + LPS 42.3 ± 3.1; for Sucrose Preference (%), 24 h: 24 h after LPS, vehicle + LPS 38.0 ± 5.6. Here is the method: Anhedonia, or the inability to experience pleasure, is a common symptom of depression. The mood regulatory role of 18 was studied against anhedonia evaluated in the sucrose preference test in animals treated with lipopolysaccharide (LPS), a model of neuroinflammation-induced depressive-like syndrome. Compound 18 (10 mg kg^−1 and 30 mg kg^−1) was daily p.o administered for five consecutive days. Twenty-four hours after the last 18 treatment, LPS 1.25 mg kg^−1 was intraperitoneally injected. Immediately after LPS injection, mice were placed in cages equipped with two bottles: a bottle of 2% sucrose solution and a bottle of water (unsweetened tap water). The consumption of the 2% sucrose solution was evaluated 6 h and 24 h after LPS injection. Amitriptyline (15 mg kg^−1) was used as the reference drug administered following the same protocol.
Male CD-1 albino mice (22–25 g; Envigo, Varese, Italy) were housed in CeSAL (Centro Stabulazione Animali da Laboratorio, University of Florence, Florence, Italy) and used at least one week after their arrival. Animals were housed in 26 cm × 41 cm cages (12 mice each) and fed with a standard laboratory diet and tap water ad libitum. They were kept at 23 ± 1 °C with a 12 h light/dark cycle, light at 7 a.m. Compound 18 was administered per o.s. whereas amitriptyline was by a s.c. route following the most widely used approach reported in the literature.
Lipopolysaccharide (LPS) from Escherichia coli was purchased from Sigma-Aldrich, (Milan, Italy) freshly dissolved in sterile saline, and injected intraperitoneally (i.p.) at the dose of 1.25 mg kg^−1 [49] after five consecutive days of treatment with compound 18, 1 h after the last administration of the compound. Behavioral tests were performed before 6 h and 24 h after LPS administration.
Mice were placed in cages equipped with a couple of bottles, one containing 2% sucrose solution, the second with water (unsweetened tap water). The consumption of the 2% sucrose solution was evaluated 6 h and 24 h after the beginning of the experiment. The preference index was calculated according to the following formula: preference index = volume consumed sucrose solution/(volume consumed sucrose solution + volume consumed water).
Behavioral tests were performed by visual observation by researchers blinded to the treatments. Results were expressed as means ± SEM, variance was analyzed by ANOVA. A Bonferroni’s significant difference procedure was used as post-hoc comparison. p values of less than 0.05 and 0.01 were considered significant. Data were analyzed using the “Origin 8.1” software.

Where [3] appears, read: 10 mg kg^−1 p.o. daily for 5 days.
Setting [4] is: 30 mg kg^−1 p.o. daily for 5 days.

T1 sequence (P29274 whole entry): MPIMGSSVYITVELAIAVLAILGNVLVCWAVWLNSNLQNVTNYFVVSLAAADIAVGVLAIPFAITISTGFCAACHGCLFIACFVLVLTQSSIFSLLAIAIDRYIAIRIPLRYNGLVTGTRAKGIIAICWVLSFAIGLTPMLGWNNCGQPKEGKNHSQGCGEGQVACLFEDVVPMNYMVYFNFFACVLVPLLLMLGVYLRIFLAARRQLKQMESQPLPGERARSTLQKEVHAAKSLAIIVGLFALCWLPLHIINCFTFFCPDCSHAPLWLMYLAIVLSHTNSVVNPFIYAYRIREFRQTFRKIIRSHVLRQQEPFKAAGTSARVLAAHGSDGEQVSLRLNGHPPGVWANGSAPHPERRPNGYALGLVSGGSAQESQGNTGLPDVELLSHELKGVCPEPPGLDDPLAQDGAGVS
Description for hA3 AR: (§1) CHO cells, stably expressing hARs, were grown adherently and maintained in Dulbecco’s modified Eagle’s medium (DMEM) with nutrient mixture F12 supplemented with 10% fetal bovine serum (FBS), penicillin (100 µg/mL), streptomycin (100 µg/mL), sodium pyruvate (1 mM), and geneticin (0.1 mg/mL).
(§2) Briefly, cells were homogenized in cold lysis buffer (5 mM Tris HCl, 2 mM EDTA, pH 7.4), centrifuged at low speed spin for 10 min, and subsequently, the supernatant was spun at 37,000 rpm. Membrane pellet was resuspended in the specific buffer and stored at −80 °C.
Description for human A2A AR: as §1, §2

As usually defined, the IC50 is the midpoint of a concentration-inhibition curve. As for `Nc1nc(-c2ccco2)nc2sc(Cc3ccccc3F)nc12` [compound 18, 2-(2-Fluorobenzyl)-5-(furan-2-yl)thiazolo[5,4-d]pyrimidin-7-amine], the Ki on human A2A AR (displacement of specific [3H]-NECA binding, CHO cells, mean ± SEM, read-out: hA2A Ki) was 0.06 ± 0.02 nM; on human A2A AR (hA2A AR, as listed in Table 3, read-out: pKi A2A (converted)), 0.0646 nM; on hA3 AR it was 93.1 ± 2.8 nM. The same molecule came in with an IC50 against hA2B AR of 384 ± 55 nM. Moreover, the “Immobility Time” value in the experiment on mice [1] (10 mg kg^−1 p.o.) stood at 88.9 ± 10.16 s; with mice [1] (30 mg kg^−1 p.o.), 56.5 ± 6.1 s. Further, the “Sucrose Preference (%), 6 h” value in the experiment on mice [2] (setting [3]) amounted to 48.9 ± 6.7%; in the experiment with mice [2] (setting [4]), 67.3 ± 1.6 %. In addition, the “Sucrose Preference (%), 24 h” value with mice [2] (setting [3]) is reported as 39.7 ± 3.7%; with mice [2] (setting [4]), 64.9 ± 2.6 %. Further, the “Anhedonia-like behavior induced by LPS, preference index (in words)” value with mice [2] (mouse, 30 mg kg^−1 p.o. daily for 5 days) is “able to revert the anhedonia-like behavior induced by LPS comparably to the effect of amitriptyline”.
